Positions count from the first letter of the chain named. Entries after “also recorded” stand apart in the source; their conditions may differ.
Columns and labels:
[1] = molecular target: T1, OCT1 mutant Gly401Ser (Homo sapiens, UniProt O15245, G401S); test: Cyanine863-inhibitable uptake in Xenopus oocytes expressing OCT1 mutant Gly401Ser
T1 sequence (O15245 1-554 G401S): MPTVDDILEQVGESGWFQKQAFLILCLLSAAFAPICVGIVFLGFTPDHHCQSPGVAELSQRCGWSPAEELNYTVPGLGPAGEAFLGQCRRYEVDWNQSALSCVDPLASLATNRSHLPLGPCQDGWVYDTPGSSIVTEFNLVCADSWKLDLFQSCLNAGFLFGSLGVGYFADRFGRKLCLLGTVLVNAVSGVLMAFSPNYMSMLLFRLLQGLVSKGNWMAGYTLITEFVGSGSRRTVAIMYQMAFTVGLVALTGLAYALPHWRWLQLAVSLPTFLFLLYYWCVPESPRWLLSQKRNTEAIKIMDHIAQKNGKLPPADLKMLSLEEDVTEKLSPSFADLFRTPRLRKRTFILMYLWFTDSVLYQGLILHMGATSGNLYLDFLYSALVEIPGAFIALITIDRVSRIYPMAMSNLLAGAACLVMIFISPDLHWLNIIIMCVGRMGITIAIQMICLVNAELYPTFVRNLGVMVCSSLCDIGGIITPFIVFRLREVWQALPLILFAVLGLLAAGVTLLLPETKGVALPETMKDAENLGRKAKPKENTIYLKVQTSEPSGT
Method: (§1) OCT1 wt and OCT1 mutants were expressed in Xenopus oocytes and analyzed side-by-side. Cyanine863-inhibitable uptake of radioactively labeled organic cations was measured over 30 min. a) Uptake of 0.1 μM [^3H]MPP by different mutants in comparison to OCT1. […] In different batches of oocytes, the cyanine-863-inhibited uptake of 0.1 μM [^3H]MPP expressed by OCT1 wt varied between 0.9 and 1.8 μmol×oocyte^−1×30 min^−1. […] MPP uptake was measured at 9 different MPP concentrations and K0.5 values were determined by fitting the Hill equation to the data. […] Mean values±SD of three experiments are presented. *P<0.05, **P<0.01, ***P<0.001.
(§2) After defolliculation, the oocytes were injected with 10 ng/oocycte of the respective cRNAs. […] Oocytes were incubated for 30 min with the indicated substrate concentrations in the absence or presence of 100 μM of the inhibitor cyanine863. The mutants were compared with the OCT1 wt in side-by-side experiments using oocytes from the same batch (Arndt, Am J. Physiol. Renal Physiol. 281 (2001), F454-468). Each data point corresponded to 8-10 oocytes. K0.5 values were estimated by fitting the Hill equation to the data. Mean values±SD are presented. Significance of differences was tested by unpaired Student t-tests.

[2] = molecular target: T2, OCT1 mutant Cys88Arg (Homo sapiens, UniProt O15245, C88R); test: Cyanine863-inhibitable uptake in Xenopus oocytes expressing OCT1 mutant Cys88Arg
T2 sequence (O15245 1-554 C88R): T1 sequence (O15245 1-554 G401S) with C88R, S401G
Method: as §1, §2

[3] = molecular target: T3, OCT1 mutant Met420del (Homo sapiens, UniProt O15245, DEL420-420); test: Cyanine863-inhibitable uptake in Xenopus oocytes expressing OCT1 mutant Met420del; assay type: cell-based
T3 construct: expressed in transfected cells; host or cells: Xenopus laevis oocytes injected with cRNA transcribed from the pOG1 vector
T3 sequence (O15245 with tags, fused parts or gaps DEL420-420): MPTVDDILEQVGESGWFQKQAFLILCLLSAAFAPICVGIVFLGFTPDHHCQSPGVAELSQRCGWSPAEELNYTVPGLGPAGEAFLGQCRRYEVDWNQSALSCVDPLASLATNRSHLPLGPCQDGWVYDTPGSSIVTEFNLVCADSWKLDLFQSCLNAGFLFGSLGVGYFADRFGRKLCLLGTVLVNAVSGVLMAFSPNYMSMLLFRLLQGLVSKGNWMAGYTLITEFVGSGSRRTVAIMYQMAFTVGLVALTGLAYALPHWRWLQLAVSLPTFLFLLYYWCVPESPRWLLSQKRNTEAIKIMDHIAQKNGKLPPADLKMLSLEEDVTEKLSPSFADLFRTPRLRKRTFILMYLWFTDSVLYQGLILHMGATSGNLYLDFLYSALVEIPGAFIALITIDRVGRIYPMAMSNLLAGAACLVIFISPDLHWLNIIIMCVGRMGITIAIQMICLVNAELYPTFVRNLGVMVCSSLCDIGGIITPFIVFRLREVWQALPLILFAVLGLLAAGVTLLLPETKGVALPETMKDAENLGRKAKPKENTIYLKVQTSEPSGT

[4] = molecular target: T4, OCT1 mutant Phe160Leu (Homo sapiens, UniProt O15245); test: Cyanine863-inhibitable uptake in Xenopus oocytes expressing OCT1 mutant Phe160Leu; assay type: cell-based
T4 construct: expressed in transfected cells; host or cells: Xenopus laevis oocytes injected with cRNA transcribed from the pOG1 vector
T4 sequence (O15245 1-554): T1 sequence (O15245 1-554 G401S) with S401G

[5] = molecular target: T5, OCT1 mutant Arg61Cys (Homo sapiens, UniProt O15245, R61C); test: Cyanine863-inhibitable uptake in Xenopus oocytes expressing OCT1 mutant Arg61Cys; assay type: cell-based; conditions: 0.1 μM [3H]MPP, 30 min
T5 construct: expressed in transfected cells; host or cells: Xenopus laevis oocytes injected with cRNA transcribed from the pOG1 vector
T5 sequence (O15245 1-554 R61C): T1 sequence (O15245 1-554 G401S) with R61C, S401G

[6] = Hill equation fit, 9 MPP concentrations

Structure (SMILES) | uptake reduced by (compared to OCT1 wt) ([1]; 0.1 μM [3H]MPP, 30 min) | uptake reduced by (compared to OCT1 wt) ([2]; 0.1 μM [3H]MPP, 30 min) | uptake compared to OCT1 wt ([3]; 0.1 μM [3H]MPP, 30 min) | half maximal concentration for substrate activation (K0.5) compared to wild-type [3, 6] | maximal expressed transport rates compared to wild-type ([3]; data not shown) | uptake compared to OCT1 wt ([4]; 0.1 μM [3H]MPP, 30 min) | half maximal concentration for substrate activation (K0.5) compared to wild-type [4, 6] | maximal expressed transport rates compared to wild-type ([4]; data not shown) | reduced Vmax value compared to OCT1 wt ([4]; n=3) | uptake reduced by (compared to OCT1 wt) [5] | uptake compared to wt, relative to reduction of MPP uptake ([1]; 1 μM [3H]serotonin) | uptake compared to wt, relative to reduction of MPP uptake ([2]; 1 μM [3H]serotonin)
C[n+]1ccc(-c2ccccc2)cc1 [MPP, 1-methyl-4-phenylpyridinium] | more than 98% | more than 98% | not significantly different from OCT1 wt | identical to wild-type | identical to wild-type | not significantly different from OCT1 wt | similar; also recorded: identical to wild-type | identical to wild-type | 32±16% | 70% |  | 
NCCc1c[nH]c2ccc(O)cc12 [serotonin] |  |  |  |  |  |  |  |  |  |  | significantly less reduced | significantly less reduced

From US20090061452A1, “Polymorphisms in the human genes for OCT 1 and their use in diagnostic and therapeutic applications” (Epidauros Biotechnologie AG, priority 2002, published 2009)
